Source: patent US20250388605A1, “HETEROBIFUNCTIONAL COMPOUNDS AND METHODS OF TREATING DISEASE” (Halda Therapeutics OpCo, Inc., priority 2022, published 2025)

Experiments:
[1] = test system: T-Rex 293 cell line SC3 cells lacking increased expression of androgen receptor protein; test: Cellular growth inhibition, T-Rex 293 SC3 cells without doxycycline (no increased androgen receptor expression), CellTiter-Glo; type: cell-based; conditions: T-Rex 293 SC3 cells not exposed to doxycycline (no increased androgen receptor expression), 72 hours
Outline: (§1)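 Growth inhibition is measured in an inducible AR-expressing T-Rex 293 clone, SC3, cultured with or without 10 ng/mL doxycycline in hormone-depleted medium. Test compounds are applied for 72 hours. GI50 values derive from CellTiter-Glo 2.0 signal fitted by four-parameter regression.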

[2] = test system: VCaP cells; test: Cellular growth inhibition assay for VCaP cells, CellTiter-Glo; type: cell-based, human; conditions: 72 hours
Outline: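 GI50 values come from four-parameter curve fits of luminescence data normalized to a zero baseline. Compound, in medium with 0.5% DMSO, was added one day after plating and left for 72 h before CellTiter-Glo 2.0 addition.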

[3] = test system: T-Rex 293 cell line SC3 cells having increased expression of androgen receptor protein due to exposure to doxycycline; test: Cellular growth inhibition, T-Rex 293 SC3 cells with doxycycline (increased androgen receptor expression), CellTiter-Glo; type: cell-based; conditions: T-Rex 293 SC3 cells with 10 ng/mL doxycycline (increased androgen receptor expression), 72 hours, CellTiter-Glo 2.0
Outline: as §1

[4] = test system: T47D cells; test: Cellular Growth Inhibition Assay for T47D Cells (CellTiter-Glo); type: cell-based, human; conditions: 72 hours
Outline: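 GI50 values derive from four-parameter regression of CellTiter-Glo 2.0 luminescence, using zero luminescence as baseline. Human breast cancer T47D cells (3000/well; DMEM, 10% FBS, 0.2 units/mL insulin) were exposed for 72 h to compound dilutions at 0.5% DMSO, with dosing starting 24 h after seeding.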

Structure (SMILES) | GI50 [2] | GI50 [4] | GI50 ([2]; Homo sapiens) | GI50 ([4]; Homo sapiens) | GI50 [1] | GI50 [3]
CCS(=O)(=O)Nc1ccc(Oc2cccc(N3CCC(OC4CCN(c5ncc(C(=O)N[C@H]6C(C)(C)[C@H](Oc7ccc(C#N)c(Cl)c7)C6(C)C)cn5)CC4)CC3)c2)c(-c2cn(C)c(=O)c3[nH]ccc23)c1 [Compound I-82] |  |  | < 500 nM | < 500 nM | > 3000 nM | < 500 nM
CCS(=O)(=O)Nc1ccc(Oc2cccc(N(C)C3CCN(C4CCN(c5ncc(C(=O)N[C@H]6C(C)(C)[C@H](Oc7ccc(C#N)c(Cl)c7)C6(C)C)cn5)CC4)C3)c2)c(-c2cn(C)c(=O)c3[nH]ccc23)c1 (some centres unmarked) [Compound I-42] |  |  | < 500 nM | < 500 nM | < 500 nM | < 500 nM
CCS(=O)(=O)Nc1ccc(Oc2cccc(CCC3CCN(c4ncc(C(=O)N[C@H]5C(C)(C)[C@H](Oc6ccc(C#N)c(Cl)c6)C5(C)C)cn4)CC3)c2F)c(-c2cn(C)c(=O)c3[nH]ccc23)c1 [Compound I-165] |  |  | < 500 nM | < 500 nM | > 3000 nM | < 500 nM
Cn1cc(-c2cc(C(C)(C)O)ccc2Oc2cccc(N3CC(CN4C5CCC4CC(c4ncc(C(=O)N[C@H]6C(C)(C)[C@H](Oc7ccc(C#N)c(Cl)c7)C6(C)C)cn4)C5)C3)c2F)c2cc[nH]c2c1=O (some centres unmarked) [Compound I-258] |  |  | < 500 nM | < 500 nM | 500 to 1500 nM | < 500 nM
CCS(=O)(=O)Nc1ccc(Oc2cccc(N3CCC(CC4CCN(c5ncc(C(=O)N[C@H]6C(C)(C)[C@H](Oc7ccc(C#N)c(Cl)c7)C6(C)C)cn5)CC4)C3)c2)c(-c2cn(C)c(=O)c3[nH]ccc23)c1 (some centres unmarked) [Compound I-40] |  |  | < 500 nM | < 500 nM | > 3000 nM | < 500 nM
CCS(=O)(=O)Nc1ccc(Oc2cccc(N3CC(CC4CCN(c5ncc(C(=O)N[C@H]6C(C)(C)[C@H](Oc7ccc(C#N)c(Cl)c7)C6(C)C)cn5)CC4)C3)c2)c(-c2cn(C)c(=O)c3[nH]ccc23)c1 [Compound I-79] |  |  | < 500 nM | < 500 nM | 500 to 1500 nM | < 500 nM
CCS(=O)(=O)c1ccc(OC2CC(OC3CC4(CCN(c5ncc(C(=O)NC6C(C)(C)C(Oc7ccc(C#N)c(Cl)c7)C6(C)C)cn5)CC4)C3)C2)c(-c2cn(C)c(=O)c3[nH]ccc23)c1 (centres unmarked) [Compound I-295, N-[3-(3-chloro-4-cyano-phenoxy)-2,2,4,4-tetramethyl-cyclobutyl]-2-[2-[3-[4-ethylsulfonyl-2-(6-methyl-7-oxo-1Hpyrrolo[2,3-c]pyridin-4-yl)phenoxy]cyclobutoxy]-7-azaspiro[3.5]nonan-7-yl]pyrimidine-5-carboxamide] |  |  | < 500 nM | < 500 nM | < 500 nM | < 500 nM
CC(C)c1ccc(Oc2cccc(N3CC(N4CCN(c5ncc(C(=O)N[C@H]6C(C)(C)[C@H](Oc7ccc(C#N)c(Cl)c7)C6(C)C)cn5)CC4)C3)c2F)c(-c2cn(C)c(=O)c3[nH]ccc23)c1 [Compound I-123] |  |  | > 3000 nM | 500 to 1500 nM | > 3000 nM | < 500 nM
Cn1cc(-c2ccccc2Oc2cccc(CCCN3CCN(c4ncc(C(=O)NC5C(C)(C)C(Oc6ccc(C#N)c(Cl)c6)C5(C)C)cn4)CC3)c2)c2cc[nH]c2c1=O (centres unmarked) [Compound I-134, N-[3-(3-chloro-4-cyano-phenoxy)-2,2,4,4-tetramethyl-cyclobutyl]-2-[4-[3-[3-[2-(6-methyl-7-oxo-1H-pyrrolo[2,3-c]pyridin-4-yl)phenoxy]phenyl]propyl]piperazin-1-yl]pyrimidine-5-carboxamide] |  |  | < 500 nM | 500 to 1500 nM | 500 to 1500 nM | < 500 nM
CCS(=O)(=O)Nc1ccc(Oc2cccc(N3CCC(N(C)C4CCN(c5ncc(C(=O)N[C@H]6C(C)(C)[C@H](Oc7ccc(C#N)c(Cl)c7)C6(C)C)cn5)CC4)C3)c2)c(-c2cn(C)c(=O)c3[nH]ccc23)c1 (some centres unmarked) [Compound I-41] |  |  | < 500 nM | < 500 nM | 500 to 1500 nM | < 500 nM

The next lines start with results.

GI50 [2] | GI50 [4] | GI50 ([2]; Homo sapiens) | GI50 ([4]; Homo sapiens) | Structure (SMILES) | GI50 [1] | GI50 [3]
< 500 nM | < 500 nM |  |  | CCS(=O)(=O)c1ccc(Oc2ccc(CN3CC4(C3)CN(c3ncc(C(=O)N[C@H]5C(C)(C)[C@H](Oc6ccc(C#N)c(Cl)c6)C5(C)C)cn3)CCO4)cc2)c(-c2cn(C)c(=O)c3[nH]ccc23)c1 [Compound I-261] | < 500 nM | < 500 nM
< 500 nM | 500 to 1500 nM |  |  | Cn1cc(-c2cc(NS(=O)(=O)C3CC3)ccc2Oc2cccc(N3CC(CC4CCN(c5ncc(C(=O)N[C@H]6C(C)(C)[C@H](Oc7ccc(C#N)c(Cl)c7)C6(C)C)cn5)CC4)C3)c2F)c2cc[nH]c2c1=O [Compound I-170] | > 3000 nM | < 500 nM
< 500 nM | < 500 nM |  |  | CCS(=O)(=O)c1ccc(Oc2ccc(CCN3CC4(C3)CN(c3ncc(C(=O)N[C@H]5C(C)(C)[C@H](Oc6ccc(C#N)c(Cl)c6)C5(C)C)cn3)CCO4)cc2)c(-c2cn(C)c(=O)c3[nH]ccc23)c1 [Compound I-262] | < 500 nM | < 500 nM
500 to 1500 nM | > 3000 nM |  |  | Cn1cc(-c2cc(C(C)(C)O)ccc2Oc2ccc(CCCC3CCCN(c4ncc(C(=O)N[C@H]5C(C)(C)[C@H](Oc6ccc(C#N)c(Cl)c6)C5(C)C)cn4)C3)cc2)c2cc[nH]c2c1=O (some centres unmarked) [Compound I-306] | > 3000 nM | < 500 nM
 |  | < 500 nM | < 500 nM | CCS(=O)(=O)c1ccc(Oc2ccc(OC3CC4(C3)CN(c3ncc(C(=O)N[C@H]5C(C)(C)[C@H](Oc6ccc(C#N)c(Cl)c6)C5(C)C)cn3)C4)c(F)c2)c(-c2cn(C)c(=O)c3[nH]ccc23)c1 [Compound I-276] | < 500 nM | < 500 nM
500 to 1500 nM | < 500 nM |  |  | Cn1cc(-c2cc(C(C)(C)O)ccc2Oc2ccc(CCC3CCN(c4cnc(C(=O)N[C@H]5C(C)(C)[C@H](Oc6ccc(C#N)c(Cl)c6)C5(C)C)cn4)CC3)cc2)c2cc[nH]c2c1=O [Compound I-335] | > 3000 nM | > 3000 nM
 |  | < 500 nM | < 500 nM | Cn1cc(-c2cc(C(C)(C)O)ccc2OC2CC3(C2)CN(CCC2CCN(c4ncc(C(=O)NC5C(C)(C)C(Oc6ccc(C#N)c(Cl)c6)C5(C)C)cn4)CC2)C3)c2cc[nH]c2c1=O (centres unmarked) [Compound I-281, N-[3-(3-chloro-4-cyano-phenoxy)-2,2,4,4-tetramethyl-cyclobutyl]-2-[4-[2-[6-[4-(1-hydroxy-1-methyl-ethyl)-2-(6-methyl-7-oxo-1H-pyrrolo[2,3-c]pyridin-4-yl)phenoxy]-2-azaspiro[3.3]heptan-2-yl]ethyl]-1-piperidyl]pyrimidine-5-carboxamide] | 500 to 1500 nM | < 500 nM
 |  | < 500 nM | 500 to 1500 nM | Cn1cc(-c2cc(C(C)(C)O)ccc2OCC(C)(C)CN2CC(OC3CCN(c4ncc(C(=O)NC5C(C)(C)C(Oc6ccc(C#N)c(Cl)c6)C5(C)C)cn4)CC3)C2)c2cc[nH]c2c1=O (centres unmarked) [Compound I-282, N-[3-(3-chloro-4-cyano-phenoxy)-2,2,4,4-tetramethyl-cyclobutyl]-2-[4-[1-[3-[4-(1-hydroxy-1-methyl-ethyl)-2-(6-methyl-7-oxo-1H-pyrrolo[2,3-c]pyridin-4-yl)phenoxy]-2,2-dimethyl-propyl]azetidin-3-yl]oxy-1-piperidyl]pyrimidine-5-carboxamide] | 500 to 1500 nM | < 500 nM
< 500 nM | < 500 nM |  |  | CCS(=O)(=O)Cc1ccc(Oc2cccc(OC(C)(C)CCC3CCN(c4ncc(C(=O)N[C@H]5C(C)(C)[C@H](Oc6ccc(C#N)c(Cl)c6)C5(C)C)cn4)CC3)c2)c(-c2cn(C)c(=O)c3[nH]ccc23)c1 [Compound I-293] | > 3000 nM | < 500 nM
 |  | > 3000 nM | < 500 nM | Cn1cc(-c2cc(C(C)(C)O)ccc2Oc2ccc(N3CC(CC4CN(c5ccc(C(=O)N[C@H]6C(C)(C)[C@H](Oc7ccc(C#N)c(Cl)c7)C6(C)C)cc5)C4)C3)cc2)c2cc[nH]c2c1=O [Compound I-336] | > 3000 nM | < 500 nM
 |  | 500 to 1500 nM | 500 to 1500 nM | Cn1cc(-c2cc(C(C)(C)O)ccc2OCC(CCCN2CCN(c3ncc(C(=O)N[C@H]4C(C)(C)[C@H](Oc5ccc(C#N)c(Cl)c5)C4(C)C)cn3)CC2)C2CC2)c2cc[nH]c2c1=O (some centres unmarked) [Compound I-237] | 500 to 1500 nM | < 500 nM
 |  | < 500 nM | 500 to 1500 nM | Cn1cc(-c2cc(C(C)(C)O)ccc2OC(CCCCCN2CCN(c3ncc(C(=O)NC4C(C)(C)C(Oc5ccc(C#N)c(Cl)c5)C4(C)C)cn3)CC2)C2CC2)c2cc[nH]c2c1=O (centres unmarked) [Compound I-243, N-[3-(3-chloro-4-cyano-phenoxy)-2,2,4,4-tetramethyl-cyclobutyl]-2-[4-[6-cyclopropyl-6-[4-(1-hydroxy-1-methyl-ethyl)-2-(6-methyl-7-oxo-1H-pyrrolo[2,3-c]pyridin-4-yl)phenoxy]hexyl]piperazin-1-yl]pyrimidine-5-carboxamide] | 500 to 1500 nM | < 500 nM
< 500 nM | < 500 nM |  |  | CCS(=O)(=O)c1ccc(OC(CCCOC2CCN(c3ncc(C(=O)N[C@H]4C(C)(C)[C@H](Oc5ccc(C#N)c(Cl)c5)C4(C)C)cn3)CC2)C2CC2)c(-c2cn(C)c(=O)c3[nH]ccc23)c1 (some centres unmarked) [Compound I-236] | < 500 nM | < 500 nM
